Test results: patent US20080275049A1, “Methods and Compositions for Upregulation of GATA Activity” (REDDY US THERAPEUTICS, INC., priority 2007, published 2008)

Tests used:
GATA1 = assay: GATA knock-down (siRNA), inducible RCT gene expression; assay type: cell-based, human; conditions: normal vs GATA-knockdown (siRNA) HepG2 cells; FIG. 2
Protocol: GATA knock-down: HepG2 cells were grown in T-75 flasks prior to study. Transfection of GATA1 specific siRNA in 24-well plates was performed according to the manufacturer's instructions. After 48 hours, RNA was isolated and RT-PCR was performed to examine changes in GATA1 and RCT message levels all normalized to actin. In some experiments, after 48 hours post transfection, media was removed and normal growth media+one of Compounds A-E or DMSO control was added to the wells. RNA isolation and RT-PCR was then performed as stated above.
To determine the role of GATA on inducible RCT gene expression, molecular approaches were used to reduce GATA expression. GATA expression was reduced by siRNA gene silencing. In this test, a candidate compound (Compound A), known for its ability to function as a GATA inducer, was added to both normal and GATA-knockdown cells as described above.

cholesterol fed rat = assay: HDL in cholesterol fed rat model; assay type: in vivo; conditions: FIG. 5
Protocol: Lipid Measurements: Lipid levels were measured at the end of the studies using commercially available kits.
Atherosclerosis is associated with dyslipidemia (increased LDL and low HDL).

[1] = test system: RCT gene (apolipoprotein E, SRB1 and LCAT); assay: RCT gene expression in pancreatic beta cells; assay type: cell-based; conditions: 25 uM, FIG. 7
Protocol: Pancreatic beta cells were incubated with compound A (25 uM). Following treatment total RNA was isolated and RCT gene (apolipoprotein E, SRB1 and LCAT) expression was determined.

Pancreatic beta cells = assay: Glucose stimulated insulin secretion in pancreatic beta cells; assay type: cell-based; conditions: 25 uM, FIG. 8
Protocol: Pancreatic beta cells were incubated with compound A (25 uM). Following treatment glucose stimulated insulin secretion was determined.

Ob/ob mice = assay: Plasma glucose in ob/ob mice (insulin resistance and diabetes model); assay type: in vivo; conditions: 2 and 4 weeks of treatment, FIG. 9
Protocol: Glucose Measurements: Glucose levels were measured at the end of the studies using commercially available kits. Ob/ob mice were treated with control vehicle or vehicle containing Compound A (GATA activator) or vehicle containing pioglitazone (a known antidiabetic drug).

ApoE −/− mice = assay: Lipid content of aortas in ApoE −/− fat fed mice; assay type: in vivo; conditions: oral 50 mg/kg/day for 7 days, oil-red O staining, FIG. 6
Protocol: Lipid Content: 8 week old ApoE −/− mice were fed a high fat diet for 2 months and then placed on normal chow. The mice were then orally dosed for 7 days with either CMC-tween (control) or Compound C at 50 mg/kg/day. At the end of the study, the aorta was dissected out, fixed in the O.C.T., sections were prepared, stained with oil-red O, and mounted under cover slips. The oil-red O staining was analyzed using quantitation software and reported as lipid content per lesion area.
Atherosclerosis is also associated with high levels of lipid content in aortas. Compound C was administered to mice according to the method described above and according to conventional animal testing protocol. The lipid content of the aortas was measured.

GATA = GATA luciferase reporter assay (GATA activity); assay type: cell-based, human; conditions: HepG2 cells transfected with GATA luciferase construct, treated overnight; FIG. 3
Protocol: GATA activity: HepG2 cells were grown in T-75 flasks prior to study. 24-well plates were seeded in normal medium without antibiotics to yield ˜50% confluency. The following day, cells were transfected according to the manufacturer's protocol and allowed to incubate overnight. The next day, the media was replaced and cells were treated with vehicle (DMSO) or one of Compounds A-E overnight. Cells were lysed by adding lysis buffer and assayed for luciferase activity.
An in vitro high-throughput assay based on luciferase activity to screen for and identify agents that upregulate GATA activity was developed. HepG2 cells were grown in T-75 flasks prior to study. 24-well plates were seeded in normal medium without antibiotics to yield ˜50% confluency. The following day, cells were transfected (Roche, FuGENE 6 transfection reagent, cat#11815091001) with a GATA luciferase construct (Panomics, cat#LR0027) according to the manufacturer's protocol and allowed to incubate overnight. The next day, the media was replaced and cells were treated with vehicle (DMSO) or GATA inducer candidate compounds (Compounds A-E) overnight. Cells were lysed by adding lysis buffer (Promega, cat#E1500) and assayed for luciferase activity (Perkin Elmer Envision 2101 Multi-Label Reader).

RCT genes = assay: Real time quantitative PCR screen for RCT gene induction; assay type: cell-based, human; conditions: cells treated, total RNA, FIG. 4
Protocol: PT-PCR Screen: Human liver cells (HepG2) were grown in T-75 flasks prior to study. 96-well plates were seeded, and the following day, cells were washed with PBS and treated with serum free media for 24 hours. The next day, cells were treated with vehicle (DMSO) or with one of Compounds A-E overnight. RNA was isolated and RT-PCR was performed to examine changes in RCT gene message levels normalized to actin.
An in vitro high-throughput assay based on real time quantitative PCR was developed to screen for and identify agents that simultaneously upregulate RCT genes. Cells were treated with pharmaceutical agents, some of which are GATA inducers as described above. Total RNA was isolated and used in the real time assay.

## CC(=O)c1ccc(Nc2nc(-c3ccccc3)cc(N3CCC(O)CC3)n2)cc1 [Compound A]
GATA1
  ability to induce RCT gene expression after GATA knock-down: blunting of Compound A's ability to induce RCT gene expression
Cholesterol fed rat
  HDL: significantly increased HDL
[1]
  expression of RCT genes (apolipoprotein E, SRB1 and LCAT): increased expression of RCT genes
Pancreatic beta cells
  glucose stimulated insulin secretion: increased secretion of insulin
Ob/ob mice
  plasma glucose: significantly lower levels of plasma glucose

## CS(=O)(=O)c1ccc(Nc2nc(-c3ccccc3)cc(N3CCC(O)CC3)n2)cc1 [Compound C]
ApoE −/− mice
  lipid content in aortas: significantly lowered lipid content

## CCN1CCCC1CNc1nc(Nc2ccc(OC)c(F)c2)nc(N2CCN(CC(=O)N3CCCC3)CC2)n1 (stereo not shown) [D]
GATA
  GATA activity (luciferase activity): not shown to induce GATA activity
RCT genes
  RCT gene expression: did not induce RCT gene induction

## COc1ccc(Nc2nc(NC3CCCCCC3)nc(N(C)C3CCN(C)CC3)n2)cc1F [E]
GATA
  GATA activity (luciferase activity): not shown to induce GATA activity
RCT genes
  RCT gene expression: did not induce RCT gene induction
